Four compounds from PubChem BioAssay AID1963448 (Molecular Pharmacology Branch, DTP, NCI, 2024) can be followed below.

The test system of the assay is 616215-338-R-J1-PDC complex spheroid growth, % test/control. The assay can be described thus: Anticancer human tumor 616215-338-R-J1-PDC patient-derived colon adenocarcinoma cell line growth inhibition [Asc]. The settings on record: for viability, T/C: stronger effect = lower value. A digest of the protocol: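 Complex solid-tumor spheroids incorporating human endothelial and mesenchymal stem cells received single agents or combinations over half-log dilution ranges anchored to clinical Cmax.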

The mark [1] stands for this setting: curve of first compound, second compound 0.1 µM.
[2] abbreviates: curve of first compound, second compound 0.316 µM.
Setting [3] is: curve of first compound, second compound 1 µM.
Setting [4] is: curve of first compound, second compound 3.16 µM.
The mark [5] stands for this setting: curve of first compound, second compound 10 µM.
Where [6] appears, read: second compound 0.1 µM, first compound 0.00316 µM.
[7] abbreviates: second compound 0.1 µM, first compound 0.01 µM.
[8] abbreviates: second compound 0.1 µM, first compound 0.0316 µM.
Setting [9] is: second compound 0.1 µM, first compound 0.1 µM.
Setting [10] is: second compound 0.1 µM, first compound 0.316 µM.
Where [11] appears, read: second compound 0.1 µM, first compound 1 µM.
[12] abbreviates: second compound 0.316 µM, first compound 0.00316 µM.
The mark [13] stands for this setting: second compound 0.316 µM, first compound 0.01 µM.
[14] abbreviates: second compound 0.316 µM, first compound 0.0316 µM.
[15] abbreviates: second compound 0.316 µM, first compound 0.1 µM.
Setting [16] is: second compound 0.316 µM, first compound 0.316 µM.
The mark [17] stands for this setting: second compound 0.316 µM, first compound 1 µM.
The mark [18] stands for this setting: second compound 1 µM, first compound 0.00316 µM.
The mark [19] stands for this setting: second compound 1 µM, first compound 0.01 µM.
[20] abbreviates: second compound 1 µM, first compound 0.0316 µM.
The mark [21] stands for this setting: second compound 1 µM, first compound 0.1 µM.
Setting [22] is: second compound 1 µM, first compound 0.316 µM.
Where [23] appears, read: second compound 1 µM, first compound 1 µM.
Setting [24] is: second compound 3.16 µM, first compound 0.00316 µM.
Where [25] appears, read: second compound 3.16 µM, first compound 0.01 µM.
The mark [26] stands for this setting: second compound 3.16 µM, first compound 0.0316 µM.
Setting [27] is: second compound 3.16 µM, first compound 0.1 µM.
The mark [28] stands for this setting: second compound 3.16 µM, first compound 0.316 µM.
Setting [29] is: second compound 3.16 µM, first compound 1 µM.
Where [30] appears, read: second compound 10 µM, first compound 0.00316 µM.
Where [31] appears, read: second compound 10 µM, first compound 0.01 µM.
Setting [32] is: second compound 10 µM, first compound 0.0316 µM.
The mark [33] stands for this setting: second compound 10 µM, first compound 0.1 µM.
[34] abbreviates: second compound 10 µM, first compound 0.316 µM.
The mark [35] stands for this setting: second compound 10 µM, first compound 1 µM.

Where “and” joins values, the source holds several entries; their conditions need not be identical. Equal values may be shown once.
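Also: spheroids exposed to agents for seven days before readout.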
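For viability, T/C in this document: 100% = DMSO vehicle control viability.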

As to `CCN1CCN(Cc2ccc(Nc3ncc(F)c(-c4cc(F)c5nc(C)n(C(C)C)c5c4)n3)nc2)CC1`, the viability, T/C – broadly, the ratio of treated to control – is, setting by setting: (compound 0.00316 µM) 98.2% and 91.4% and 109%; (compound 0.01 µM) 97.2% and 108% and 113%; (compound 0.0316 µM) 96.5% and 104% and 78.5%; (compound 0.1 µM) 102% and 106% and 82.5%; (compound 0.316 µM) 122% and 102% and 65.8%; (compound 1 µM) 130% and 117% and 34.9%. For the same compound, the IC50 (commonly the concentration needed to halve the response being measured) (curve of compound) is > 1000 nM and 543 nM.
Turning to `O=C(c1ccc(F)c(F)c1Nc1ccc(I)cc1F)N1CC(O)([C@@H]2CCCCN2)C1`, the viability, T/C by setting is: (compound 0.00316 µM) 89.5% and 99.8% and 108%; (compound 0.01 µM) 84.3% and 101% and 100%; (compound 0.0316 µM) 74.5% and 93.8% and 67.1%; (compound 0.1 µM) 54.4% and 51.2% and 15.8%; (compound 0.316 µM) 22.1% and 19.3% and 4.03%; (compound 1 µM) 1.33% and 0.76% and 3.69%. Moreover, for the setting “curve of compound”, the IC50 was 113 nM and 114 nM and 46.2 nM.
Take `CCN1CCN(Cc2ccc(Nc3ncc(F)c(-c4cc(F)c5nc(C)n(C(C)C)c5c4)n3)nc2)CC1` + Cc1c(S(C)(=O)=O)c(-c2cc(F)cc(N3CCN(c4ccc(NS(=O)(=O)c5ccc(NC(CCN6CCC(C(=O)OCCCP(=O)(O)O)CC6)CSc6ccccc6)c(S(=O)(=O)C(F)(F)F)c5)cc4)CC3)c2)c(-c2ccc(Cl)cc2)n1C(C)C: the IC50 reads like this: under setting [1], more than 1000 nM; under setting [2], more than 1000 nM; under setting [3], more than 1000 nM; under setting [4], less than 3.16 nM; under setting [5], less than 3.16 nM. In addition, the viability, T/C is 92.5% under setting [6]; 89.3% under setting [7]; 92.6% under setting [8]; 96.5% under setting [9]; 100% under setting [10]; 129% under setting [11]. The viability, T/C by setting is: under setting [12], 86%; under setting [13], 84.9%; under setting [14], 93.2%; under setting [15], 99.7%; under setting [16], 109%; under setting [17], 130%. Further, the viability, T/C was 68.5% under setting [18]; 75.8% under setting [19]; 77.9% under setting [20]; 78% under setting [21]; 99.3% under setting [22]; 95.9% under setting [23]. Also, the viability, T/C reads like this: under setting [24], 45.9%; under setting [25], 52.7%; under setting [26], 58.6%; under setting [27], 69%; under setting [28], 86.1%; under setting [29], 54.8%. Moreover, the viability, T/C was 30% under setting [30]; 32.9% under setting [31]; 34% under setting [32]; 39.4% under setting [33]; 67.7% under setting [34]; 24.7% under setting [35].
Regarding `COc1c(OCCCN2CCOCC2)ccc2c3n(c(=NC(=O)c4cnc(N)nc4)nc12)CCN3` + Cc1c(S(C)(=O)=O)c(-c2cc(F)cc(N3CCN(c4ccc(NS(=O)(=O)c5ccc(NC(CCN6CCC(C(=O)OCCCP(=O)(O)O)CC6)CSc6ccccc6)c(S(=O)(=O)C(F)(F)F)c5)cc4)CC3)c2)c(-c2ccc(Cl)cc2)n1C(C)C, the IC50 runs as follows: under setting [1], 231 nM; under setting [2], 185 nM; under setting [3], 126 nM; under setting [4], 36.4 nM; under setting [5], less than 3.16 nM. Also, the viability, T/C runs as follows: under setting [6], 93.1%; under setting [7], 100%; under setting [8], 100%; under setting [9], 88.2%; under setting [10], 35.5%; under setting [11], 7.35%. Besides, the viability, T/C is 90.5% under setting [12]; 96.7% under setting [13]; 105% under setting [14]; 81.1% under setting [15]; 22.2% under setting [16]; 2.69% under setting [17]. For the same compound, the viability, T/C was 71.7% under setting [18]; 78.3% under setting [19]; 78.6% under setting [20]; 60.6% under setting [21]; 7.07% under setting [22]; 0.53% under setting [23]. Moreover, the viability, T/C reads like this: under setting [24], 45.4%; under setting [25], 53.2%; under setting [26], 63%; under setting [27], 22.1%; under setting [28], 1.45%; under setting [29], 0.19%. The viability, T/C reads like this: under setting [30], 28.8%; under setting [31], 30.3%; under setting [32], 35.4%; under setting [33], 4.88%; under setting [34], 0.24%; under setting [35], 0.29%.
